Experiments:
U87MG cells = assay: In vitro cell uptake, U87MG (FIG. 1a); type: cell-based, human; conditions: controls ^68Ga-DOTA, ^68Ga-NOTA
Method: Human colon cancer cell line SNU-C4 was purchased from Korea Cell Line Bank (KCLB). Human thyroid cell line ARO, human liver cancer cell line Hep3B, human glioma cell line U251MG and U87MG, and mouse colon cell line CT-26 were purchased from American Type Culture Collection (ATCC). SNU-C4 and ARO were culture in RPMI1640 (Welgene Inc., Korea) and Hep3B, U251 MG, U87MG, and CT-26 were cultured in DMEM (Welgene Inc., Korea). Penicillin, streptomycin and amphotericin B (10,000 IU/mL, 10 mg/mL and 25 μg/mL, respectively, Mediatech Inc., U.S.A.) 1% mixture and fetal bovine serum (Welgene Inc., Korea) were added to all cell culture media. Cell culture was done in 37° C. incubator with supply of 5% CO2.
About 1.8×10^5 cells/mL CT-26 and 1.2×10^5 cells/mL U87MG were put into 24-well incubation plate and incubated for 20 hr. When the each well was about 80% confluent with cells, 296 kBq/0.5 mL of ^68Ga labeled agent was added to each well. Culture supernatants were discarded at each time point and cells were washed with ice-cooled Hank's balanced salt solution (HBSS, pH7.3, Gibco, U.S.A.) 2 times. The cells were dissolved by 0.5% sodium dodecylsulfate (SDS), recovered and counted using a gamma counter (Packard, Can berra Co., U.S.A.). Total protein amount in each sample was measured by bicinchonic acid (BCA, Pierce, U.S.A.) method.

[1] = tested on: SNU-C4 xenografted nude mice; assay: PET imaging of tumor xenografted mice; type: in vivo, mouse; conditions: PET at 1 and 2 hr post-injection, FIG. 2
Method: Human colon cancer cell line SNU-C4 was cultured in RPMI1640 media containing 10% fetal bovine serum and harvested using trypsin. The cells were washed using 10 mL PBS and centrifugation at 3,000 rpm. Each nude mouse was injected with 2×10^5 cells/0.1 mL on the right shoulder subcutaneously. On 14 days post-injection, each 10 μCi/0.1 mL of ^68Ga labeled agent was injected into the xenografted mice through the tail vein. The injected mice were anesthetized using 2% isoflurane, PET images were obtained at 1 and 2 hr post-injection using rodent R4, microPET scanner (Concorde Microsystem Inc.). The images were analyzed using ASIPro software (Concorde Microsystem Inc.).

[2] = tested on: SNU-C4 xenografted nude mice; assay: Biodistribution study in SNU-C4 xenografted nude mice after intravenous injection; type: in vivo, mouse; conditions: for % ID/g Tumor: SNU-C4 tumor
Method: Human colon cancer cell line SNU-C4 was cultured in RPMI1640 media containing 10% fetal bovine serum and harvested using trypsin. The cells were washed using 10 mL PBS and centrifugation at 3,000 rpm. Each nude mouse was injected with 2×10^5 cells/0.1 mL on the right shoulder subcutaneously. On 13 days post-injection, each 10 μCi/0.1 mL of ^68Ga labeled agent was injected into the xenografted mice through the tail vein. The injected mice were sacrificed at 10 min, 30 min, 1 hr, and 2 hr, cancer, blood, muscle, heart, liver, spleen, stomach, intestine, and bone were obtained, weighed, and their radioactivities were counted. The results were expressed as percentages of injected dose per gram tissue (% ID/g).

Hep3B cells = assay: In vitro cell uptake, Hep3B (FIG. 1c); type: cell-based, human; conditions: control ^68Ga-NOTA
[3] = 10 min after intravenous injection
[4] = 30 min after intravenous injection
[5] = 1 hr after intravenous injection
[6] = 2 hr after intravenous injection

NC(CNC(=O)CN1CCN(CC(=O)[O-])CCN(CC(=O)[O-])CCN(CC(=O)[O-])CC1)C(=O)O.[68Ga+3] (stereo not drawn) [^68Ga-DOTA-ala]
tumor cell uptake versus control agents (U87MG cells): significantly increase tumor cell uptakes | tumor uptake in PET images [1]: high tumor uptakes | % ID/g Tumor [2, 3]: 3.33 ± 0.58 % ID/g | % ID/g Tumor [2, 4]: 2.23 ± 0.64 % ID/g | % ID/g Tumor [2, 5]: 0.93 ± 0.22 % ID/g | % ID/g Tumor [2, 6]: 0.66 ± 0.25 % ID/g | tumor uptake compared with the control heterocyclic compound (in words) ([2]; SNU-C4 xenografted nude mice, 10 min to 2 hr): higher than that of ^68Ga-DOTA at all time point | % ID/g Blood [2, 3]: 7.87 ± 1.11 % ID/g | % ID/g Blood [2, 4]: 2.63 ± 0.11 % ID/g | % ID/g Blood [2, 5]: 1.30 ± 0.28 % ID/g | % ID/g Blood [2, 6]: 0.65 ± 0.11 % ID/g | % ID/g Bone [2, 3]: 2.52 ± 0.64 % ID/g | % ID/g Bone [2, 4]: 1.20 ± 0.17 % ID/g | % ID/g Bone [2, 5]: 0.90 ± 0.12 % ID/g | % ID/g Bone [2, 6]: 0.70 ± 0.26 % ID/g | % ID/g Heart [2, 3]: 2.19 ± 0.47 % ID/g | % ID/g Heart [2, 4]: 0.78 ± 0.07 % ID/g | % ID/g Heart [2, 5]: 0.43 ± 0.10 % ID/g | % ID/g Heart [2, 6]: 0.15 ± 0.05 % ID/g | % ID/g Intestine [2, 3]: 1.91 ± 0.48 % ID/g | % ID/g Intestine [2, 4]: 0.74 ± 0.11 % ID/g | % ID/g Intestine [2, 5]: 0.52 ± 0.10 % ID/g | % ID/g Intestine [2, 6]: 0.40 ± 0.10 % ID/g | % ID/g Kidney [2, 3]: 50.94 ± 18.62 % ID/g | % ID/g Kidney [2, 4]: 44.79 ± 11.99 % ID/g | % ID/g Kidney [2, 5]: 67.43 ± 16.10 % ID/g | % ID/g Kidney [2, 6]: 48.79 ± 20.36 % ID/g | % ID/g Liver [2, 3]: 1.57 ± 0.22 % ID/g | % ID/g Liver [2, 4]: 0.80 ± 0.12 % ID/g | % ID/g Liver [2, 5]: 0.56 ± 0.06 % ID/g | % ID/g Liver [2, 6]: 0.39 ± 0.10 % ID/g | % ID/g Muscle [2, 3]: 2.12 ± 0.64 % ID/g | % ID/g Muscle [2, 4]: 0.90 ± 0.11 % ID/g | % ID/g Muscle [2, 5]: 0.47 ± 0.16 % ID/g | % ID/g Muscle [2, 6]: 0.14 ± 0.03 % ID/g | % ID/g Spleen [2, 3]: 1.64 ± 0.26 % ID/g | % ID/g Spleen [2, 4]: 0.74 ± 0.10 % ID/g | % ID/g Spleen [2, 5]: 0.47 ± 0.04 % ID/g | % ID/g Spleen [2, 6]: 0.33 ± 0.08 % ID/g | % ID/g Stomach [2, 3]: 2.63 ± 0.63 % ID/g | % ID/g Stomach [2, 4]: 0.90 ± 0.17 % ID/g | % ID/g Stomach [2, 5]: 0.45 ± 0.10 % ID/g | % ID/g Stomach [2, 6]: 0.21 ± 0.05 % ID/g

O=C([O-])CN1CCN(CC(=O)[O-])CCN(CC(=O)[O-])CC1.[68Ga+3] [^68Ga-NOTA, reference compound]
% ID/g Tumor [2, 3]: 2.69 ± 0.19 % ID/g | % ID/g Tumor [2, 4]: 1.28 ± 0.22 % ID/g | % ID/g Tumor [2, 5]: 0.59 ± 0.18 % ID/g | % ID/g Tumor [2, 6]: 0.43 ± 0.06 % ID/g | % ID/g Blood [2, 3]: 7.13 ± 0.77 % ID/g | % ID/g Blood [2, 4]: 2.55 ± 0.31 % ID/g | % ID/g Blood [2, 5]: 0.41 ± 0.24 % ID/g | % ID/g Blood [2, 6]: 0.07 ± 0.00 % ID/g | % ID/g Bone [2, 3]: 1.95 ± 0.06 % ID/g | % ID/g Bone [2, 4]: 0.65 ± 0.16 % ID/g | % ID/g Bone [2, 5]: 0.15 ± 0.09 % ID/g | % ID/g Bone [2, 6]: 0.06 ± 0.07 % ID/g | % ID/g Heart [2, 3]: 1.83 ± 0.16 % ID/g | % ID/g Heart [2, 4]: 0.59 ± 0.07 % ID/g | % ID/g Heart [2, 5]: 0.15 ± 0.10 % ID/g | % ID/g Heart [2, 6]: 0.07 ± 0.07 % ID/g | % ID/g Intestine [2, 3]: 1.52 ± 0.08 % ID/g | % ID/g Intestine [2, 4]: 0.84 ± 0.10 % ID/g | % ID/g Intestine [2, 5]: 0.33 ± 0.14 % ID/g | % ID/g Intestine [2, 6]: 0.47 ± 0.17 % ID/g | % ID/g Kidney [2, 3]: 11.61 ± 0.61 % ID/g | % ID/g Kidney [2, 4]: 7.44 ± 1.29 % ID/g | % ID/g Kidney [2, 5]: 3.56 ± 2.10 % ID/g | % ID/g Kidney [2, 6]: 2.73 ± 0.32 % ID/g | % ID/g Liver [2, 3]: 1.98 ± 0.19 % ID/g | % ID/g Liver [2, 4]: 1.44 ± 0.29 % ID/g | % ID/g Liver [2, 5]: 1.04 ± 0.35 % ID/g | % ID/g Liver [2, 6]: 1.21 ± 0.21 % ID/g | % ID/g Muscle [2, 3]: 1.68 ± 0.86 % ID/g | % ID/g Muscle [2, 4]: 0.77 ± 0.19 % ID/g | % ID/g Muscle [2, 5]: 0.20 ± 0.17 % ID/g | % ID/g Muscle [2, 6]: 0.04 ± 0.01 % ID/g | % ID/g Spleen [2, 3]: 1.41 ± 0.19 % ID/g | % ID/g Spleen [2, 4]: 0.62 ± 0.09 % ID/g | % ID/g Spleen [2, 5]: 0.22 ± 0.09 % ID/g | % ID/g Spleen [2, 6]: 0.19 ± 0.03 % ID/g | % ID/g Stomach [2, 3]: 2.13 ± 0.26 % ID/g | % ID/g Stomach [2, 4]: 0.76 ± 0.31 % ID/g | % ID/g Stomach [2, 5]: 0.20 ± 0.10 % ID/g | % ID/g Stomach [2, 6]: 0.11 ± 0.03 % ID/g

NC(CCCCNC(=O)CN1CCN(CC(=O)[O-])CCN(CC(=O)[O-])CC1)C(=O)[O-].[68Ga+3] (stereo not drawn) [^68Ga-NOTA-lys]
tumor cell uptake versus control agents (Hep3B cells): significantly increase tumor cell uptakes

— patent publication US20120029177A1, “HETEROCYCLE-AMINO ACID DERIVATIVES FOR TARGETING CANCER TISSUE AND RADIOACTIVE OR NON-RADIOACTIVE LABELED COMPOUNDS THEREOF” (SNU R&DB FOUNDATION, priority 2009, published 2012)
